Data published in US20100130477A1, “Spirocyclobutyl Piperidine Derivatives” (ASTRAZENECA AB, priority 2008, published 2010).

Target: T1, human Histamine H3 receptor (hH3R) (Homo sapiens, UniProt Q9Y5N1)
T1 construct: expressed in transfected cells; host or cells: CHO cells (Chinese Hamster Ovary); membranes
Experiment: GTPγS Binding Assay (antagonist activity, [35S]GTPγS, (R)-α-methyl histamine 30 nM)
Assay type: biochemical
Conditions: membranes from CHO cells expressing hH3R, 90 minutes at room temperature
Experimental: Guanosine 5′-O-(3-[^35S]thio)triphosphate [GTPγS] Binding Assay
A GTPγS binding assay can be used to investigate antagonist properties of compounds in CHO cells (Chinese Hamster Ovary) transfected with human Histamine H3 receptor (hH3R). Membranes from CHO cells expressing hH3R (10 μg/well) are diluted in GTPγS assay buffer (20 mM Hepes, 10 mM MgCl2, 100 mM NaCl, pH 7.4) and preincubated with saponine (3 μg/ml), GDP (10 μM) and PVT-WGA SPA beads (125 μg/well) (Amersham) for 30 minutes. To determine antagonist activity, (R)-α-methyl histamine (30 nM) is added in 96 well SPA plate with [^35S]GTPγS (0.2 nM) and various concentration of H3R antagonists. The GTPγS binding assay is started with addition of the mixture membrane/saponine/GDP and incubated for 90 minutes at room temperature. The amount of bound [^35S]GTPγS is determined by using the MicroBeta Trilux counter (PerkinElmer). The percentage of [^35S]GTPγS bound in each sample is calculated as a percentage of that bound control sample incubated in absence of H3 antagonist. Duplicate determinations are obtained for each concentration, and the data are analyzed using ExcelFit4 to obtain the IC50.

T1 sequence (Q9Y5N1 whole entry): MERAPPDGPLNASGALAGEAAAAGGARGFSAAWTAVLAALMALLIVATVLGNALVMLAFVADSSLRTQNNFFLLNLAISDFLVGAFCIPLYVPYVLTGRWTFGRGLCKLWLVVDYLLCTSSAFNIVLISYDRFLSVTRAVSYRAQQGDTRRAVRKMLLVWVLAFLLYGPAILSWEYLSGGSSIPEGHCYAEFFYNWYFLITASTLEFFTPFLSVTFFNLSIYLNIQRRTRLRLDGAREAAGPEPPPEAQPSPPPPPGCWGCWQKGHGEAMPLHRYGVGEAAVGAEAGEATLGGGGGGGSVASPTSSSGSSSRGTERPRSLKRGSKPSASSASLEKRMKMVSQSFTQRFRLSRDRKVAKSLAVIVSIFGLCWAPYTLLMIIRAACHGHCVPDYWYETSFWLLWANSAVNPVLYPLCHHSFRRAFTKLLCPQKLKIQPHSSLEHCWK

Row | IC50 [nM] | Compound
1 | 35 | O=C(c1cc(Cl)ccn1)N1CCC2(CC1)CC(C(=O)N1CCN(C3CCC3)CC1)C2 [Example 17, (7-(4-chloropicolinoyl)-7-azaspiro[3.5]nonan-2-yl)(4-cyclobutylpiperazin-1-yl)methanone]
2 | 54 | Cc1cccc(C(=O)N2CCC3(CC2)CC(C(=O)N2CCN(C4CCC4)CC2)C3)n1 [Example 18, (4-cyclobutylpiperazin-1-yl)(7-(6-methylpicolinoyl)-7-azaspiro[3.5]nonan-2-yl)methanone]
3 | 24.5 | Cc1cccnc1C(=O)N1CCC2(CC1)CC(C(=O)N1CCN(C3CCC3)CC1)C2 [Example 19, (4-cyclobutylpiperazin-1-yl)(7-(3-methylpicolinoyl)-7-azaspiro[3.5]nonan-2-yl)methanone]
4 | 48 | O=C(c1ccccn1)N1CCC2(CC1)CC(C(=O)N1CCN(C3CCC3)CC1)C2 [Example 20, (4-cyclobutylpiperazin-1-yl)(7-picolinoyl-7-azaspiro[3.5]nonan-2-yl)methanone]
5 | 18.2 | O=C(c1cccnc1)N1CCC2(CC1)CC(C(=O)N1CCN(C3CCC3)CC1)C2 [Example 21, (4-cyclobutylpiperazin-1-yl)(7-nicotinoyl-7-azaspiro[3.5]nonan-2-yl)methanone]
6 | 12.6 | O=C(c1ccncc1)N1CCC2(CC1)CC(C(=O)N1CCN(C3CCC3)CC1)C2 [Example 22, (4-cyclobutylpiperazin-1-yl)(7-isonicotinoyl-7-azaspiro[3.5]nonan-2-yl)methanone]
7 | 6.06 | Cc1cnccc1C(=O)N1CCC2(CC1)CC(C(=O)N1CCN(C3CCC3)CC1)C2 [Example 23, (4-cyclobutylpiperazin-1-yl)(7-(3-methylisonicotinoyl)-7-azaspiro[3.5]nonan-2-yl)methanone]
8 | 21.8 | Cc1cc(C(=O)N2CCC3(CC2)CC(C(=O)N2CCN(C4CCC4)CC2)C3)ccn1 [Example 24, (4-cyclobutylpiperazin-1-yl)(7-(2-methylisonicotinoyl)-7-azaspiro[3.5]nonan-2-yl)methanone]
9 | 12.5 | Cc1cncc(C(=O)N2CCC3(CC2)CC(C(=O)N2CCN(C4CCC4)CC2)C3)c1 [Example 25, (4-cyclobutylpiperazin-1-yl)(7-(5-methylnicotinoyl)-7-azaspiro[3.5]nonan-2-yl)methanone]
10 | 23.8 | COc1cc(C(=O)N2CCC3(CC2)CC(C(=O)N2CCN(C4CCC4)CC2)C3)ccn1 [Example 26, (4-cyclobutylpiperazin-1-yl)(7-(2-methoxyisonicotinoyl)-7-azaspiro[3.5]nonan-2-yl)methanone]
11 | 12.6 | O=C(Cc1cccnc1)N1CCC2(CC1)CC(C(=O)N1CCN(C3CCC3)CC1)C2 [Example 27, 1-(2-(4-cyclobutylpiperazine-1-carbonyl)-7-azaspiro[3.5]nonan-7-yl)-2-(pyridin-3-yl)ethanone]
12 | 13.8 | O=C(Cc1ccncc1)N1CCC2(CC1)CC(C(=O)N1CCN(C3CCC3)CC1)C2 [Example 28, 1-(2-(4-cyclobutylpiperazine-1-carbonyl)-7-azaspiro[3.5]nonan-7-yl)-2-(pyridin-4-yl)ethanone]
13 | 19.7 | O=C(CCc1ccncc1)N1CCC2(CC1)CC(C(=O)N1CCN(C3CCC3)CC1)C2 [Example 29, 1-(2-(4-cyclobutylpiperazine-1-carbonyl)-7-azaspiro[3.5]nonan-7-yl)-3-(pyridin-4-yl)propan-1-one]
14 | 48.4 | O=C(c1ccccc1)N1CCC2(CC1)CC(C(=O)N1CCN(C3CCC3)CC1)C2 [Example 30, (7-benzoyl-7-azaspiro[3.5]nonan-2-yl)(4-cyclobutylpiperazin-1-yl)methanone]
15 | 24.5 | N#Cc1cccc(C(=O)N2CCC3(CC2)CC(C(=O)N2CCN(C4CCC4)CC2)C3)c1 [Example 31, 3-(2-(4-cyclobutylpiperazine-1-carbonyl)-7-azaspiro[3.5]nonane-7-carbonyl)benzonitrile]
16 | 47.7 | O=C(Nc1ccccc1)N1CCC2(CC1)CC(C(=O)N1CCN(C3CCC3)CC1)C2 [Example 32, 2-(4-cyclobutylpiperazine-1-carbonyl)-N-phenyl-7-azaspiro[3.5]nonane-7-carboxamide]
17 | 33.9 | CC(C)N1CCN(C(=O)C2CC3(CCN(S(C)(=O)=O)CC3)C2)CC1 [Example 33, (4-isopropylpiperazin-1-yl)(7-(methylsulfonyl)-7-azaspiro[3.5]nonan-2-yl)methanone]
18 | 66.4 | Cc1cc(C(=O)N2CCC3(CC2)CC(C(=O)N2CCN(C(C)C)CC2)C3)ccn1 [Example 34, (4-isopropylpiperazin-1-yl)(7-(2-methylisonicotinoyl)-7-azaspiro[3.5]nonan-2-yl)methanone]
19 | 61.9 | CC(C)N1CCN(C(=O)C2CC3(CCN(C(=O)c4ccncc4)CC3)C2)CC1 [Example 35, (7-isonicotinoyl-7-azaspiro[3.5]nonan-2-yl)(4-isopropylpiperazin-1-yl)methanone]
20 | 67.4 | CC(C)N1CCN(C(=O)C2CC3(CCN(C(=O)c4cccnc4)CC3)C2)CC1 [Example 36, (4-isopropylpiperazin-1-yl)(7-nicotinoyl-7-azaspiro[3.5]nonan-2-yl)methanone]
21 | 114 | CC(C)N1CCN(C(=O)C2CC3(CCN(C(=O)N(C)C)CC3)C2)CC1 [Example 37, 2-(4-isopropylpiperazine-1-carbonyl)-N,N-dimethyl-7-azaspiro[3.5]nonane-7-carboxamide]
22 | 8.9 | O=C(C1CC2(CCN(S(=O)(=O)c3ccc(F)cc3)CC2)C1)N1CCCN(C2CCC2)CC1 [Example 38, (4-cyclobutyl-1,4-diazepan-1-yl)(7-(4-fluorophenylsulfonyl)-7-azaspiro[3.5]nonan-2-yl)methanone]
23 | 9.97 | O=C(C1CC2(CCN(S(=O)(=O)c3cccc(F)c3)CC2)C1)N1CCCN(C2CCC2)CC1 [Example 39, (4-cyclobutyl-1,4-diazepan-1-yl)(7-(3-fluorophenylsulfonyl)-7-azaspiro[3.5]nonan-2-yl)methanone]
24 | 6.22 | O=C(C1CC2(CCN(S(=O)(=O)c3ccccc3F)CC2)C1)N1CCCN(C2CCC2)CC1 [Example 40, (4-cyclobutyl-1,4-diazepan-1-yl)(7-(2-fluorophenylsulfonyl)-7-azaspiro[3.5]nonan-2-yl)methanone]
25 | 8.71 | O=C(C1CC2(CCN(S(=O)(=O)c3ccccc3)CC2)C1)N1CCCN(C2CCC2)CC1 [Example 41, (4-cyclobutyl-1,4-diazepan-1-yl)(7-(phenylsulfonyl)-7-azaspiro[3.5]nonan-2-yl)methanone]
26 | 15 | O=C(c1ccccn1)N1CCC2(CC1)CC(C(=O)N1CCCN(C3CCC3)CC1)C2 [Example 42, (4-cyclobutyl-1,4-diazepan-1-yl)(7-picolinoyl-7-azaspiro[3.5]nonan-2-yl)methanone]
27 | 8.87 | Cc1cc(C(=O)N2CCC3(CC2)CC(C(=O)N2CCCN(C4CCC4)CC2)C3)ccn1 [Example 43, (4-cyclobutyl-1,4-diazepan-1-yl)(7-(2-methylisonicotinoyl)-7-azaspiro[3.5]nonan-2-yl)methanone]
28 | 8.45 | Cc1cnccc1C(=O)N1CCC2(CC1)CC(C(=O)N1CCCN(C3CCC3)CC1)C2 [Example 44, (4-cyclobutyl-1,4-diazepan-1-yl)(7-(3-methylisonicotinoyl)-7-azaspiro[3.5]nonan-2-yl)methanone]
